From article PMC12128024, “Copper(II) Cyclopeptides with High ROS-Mediated Cytotoxicity” (Bioconjugate Chemistry, 2025)
*1 amine or outer side, *2 acyl side, *3 side chain or, on linkers, in order; H or OH if unused. Where a SMILES comes first, the peptide text is derived from it. [ ]: non-standard residue; d: D form. X1 = O=C(c1ccc(-c2ccc(N[*:1])cn2)nc1)[*:2]; βAla = NCCC(=O)O

Columns and labels:
[1] = test system: NCI-H460 (lung carcinoma); conditions: 48 h
Source text: (§1) IC50 is the concentration at which 50% growth inhibition is obtained and E max represents the efficacy of the compound at its maximum concentration, expressed as the maximum % cell inhibition achieved by the compound (see Section S6 and Figure S8 of the Supporting Information).
(§2) General method: cell lines and grown conditions
(§3) Non-small lung carcinoma NCI-H460, human colon carcinoma HCT-116, human glioma SF-268
(§4) and doxorubicin-resistance human mamma carcinoma NCI/ADR-RES cell lines, as well as
(§5) Eagle’s Minimal Essential Medium (EMEM) and RPMI1640 were purchased from the American Tissue Culture Collection (ATCC). Frozen cells were thawed in a 75 cm2 cell culture flask in RPMI
(§6) supplemented with 2 mM L-glutamine and 10% FBS and maintained at 37 °C in a 5% CO2
(§7) The inhibition of cell proliferation induced by the samples [1/Cu(II), 1 eq. cyclopeptide 1/3 eq. of
(§8) Cu(II); 2/Cu(II), 1 eq. cyclopeptide 2/5 eq. of Cu(II)]‚ was carried out by using MTT method for
(§9) HCT-116, NCI/ADR-RES and NCI-H460 cell lines. SF-268 cell growth inhibition induced by the
(§10) samples was assessed using a system based on crystal violet cell staining and subsequent
(§11) acetylation. Cells were seeded in a 96-well microplate (5000 cells/well for HCT-116, 10000
(§12) cells/well for SF-268 and 15000 cells/well for NCI/ADR-RES and NCI-H460 cell lines) in 100 μl
(§13) of growth medium and maintained at 37 °C for 24 h.
(§14) Then growth medium was replaced by fresh medium containing different concentrations of the
(§15) samples to be assayed and maintained at 37 °C in a 5% CO2 atmosphere for 48 h. After this
(§16) time, 10 μL MTT (5 mg/ml in PBS) were added to each well and maintained for 4 h at 37 °C in a
(§17) 5% CO2 atmosphere. Then 100 μL of 10% SDS in 0.01 M HCl were added to each well an
(§18) incubated for 12-14 h under the same experimental conditions. Absorbance due to formation
(§19) was detected in a Tecan infinity M1000 Pro reader using a wavelength of 595 nm. All assays
were performed with triplicate points.
b) Crystal violet cell staining
(§20) The samples dissolved in water were added, maintaining the same proportion of water in each
(§21) well (10%). After 72 h (at 37°C and in an atmosphere of 5% CO 2/95% air), the cells were fixed to
(§22) the plate with 10 μL of 11% glutaraldehyde solution, kept under agitation at room temperature,
(§23) for 15 minutes. Once fixed, the medium was removed and the cells were washed 3-4 times with
(§24) distilled water, followed by staining of the cells with 100 μL of a 0.1% crystal violet solution. This
(§25) solution was prepared by diluting 0.1g of crystal violet in 100 mL of buffer composed of 200 mM
(§26) phosphoric acid, 200 mM formic acid and 200 mM 2-(N-morpholino)-ethane sulphonic acid
(§27) (MES) at pH 6. The plate was kept shaking at room temperature for 15 minutes. The dye was
(§28) removed, washed 3-4 times with distilled water and dried. 100 μL of 10% acetic acid was then
(§29) added and kept under agitation for 15 minutes, at room temperature, so that the staining was
(§30) homogeneous in all wells. Finally, an absorbance reading of the plates was performed at a
(§31) wavelength of 595 nm (Tecan M1000 Infinite Pro). The assay was performed with triplicate points.
(§32) Data were expressed as the growth inhibition percentage calculated in basis on the equation: %
(§33) inhibition= 100 – [(AO × 100) / AT]. Where AT is the measured absorbance in wells containing
(§34) compounds and AO is the absorbance measured in blank wells (cells with medium and vehicle).
(§35) The inhibitory potency of compounds was calculated by constructing concentration-% growth
(§36) inhibition curves, and extrapolating IC50 values (concentration of compound that inhibits cells

[2] = test system: nontransformed lung fibroblast (MRC-5); conditions: 48 h
Source text: as §1, §2, §3, §4, §5, §6, §7, §8, §9, §10, §11, §12, §13, §14, §15, §16, §17, §18, §19
were performed with triplicate points.
b) Crystal violet cell staining
as §20, §21, §22, §23, §24, §25, §26, §27, §28, §29, §30, §31, §32, §33, §34, §35, §36

SF-268 (human glioma) = conditions: 72 h
Source text: as §1, §2, §3, §4, §5, §6, §7, §8, §9, §10, §11, §12, §13, §14, §15, §16, §17, §18, §19
were performed with triplicate points.
b) Crystal violet cell staining
as §20, §21, §22, §23, §24, §25, §26, §27, §28, §29, §30, §31, §32, §33, §34, §35, §36

NCI/ADR-RES cells = experiment: ICP-MS internalization study (intracellular Cu accumulation); type: cell-based; conditions: 1 µM compound, 48 h, metallopeptides 1 eq. cyclopeptide + 1 eq. Cu(II)
Procedure: To evaluate the ability of the Cu(II) metallopeptide systems to internalize in cancer cells, ICP-MS studies were performed in NCI/ADR-RES cells after 48 h of incubation with cyclopeptides 1 and 2, as well as their corresponding 1/Cu(II) and 2/Cu(II) metallopeptide derivatives formed by mixing each cyclopeptide with 1 equiv Cu(II), and using CuCl2·2H2O both as a Cu(II) source and a control.
7.1. General methods and materials
ICP Measurements were conducted employing an Agilent 7900 ICP-MS system (Agilent Technologies, Tokyo, Japan). The sample introduction system was comprised of an autosampler, a double-pass spray chamber with Peltier system, a glass concentric nebulizer (MicroMist low-flow nebulizer, Glass Expansion, West Melbourne, Australia), and a quartz torch.
Quantification of copper concentrations was achieved using Agilent ICP-MS MassHunter 5.1, (Version D.01.01 Agilent Technologies, Tokyo, Japan). The parameters for the ICP-MS device were as follows: RF Power, 1550 W; Sample Depth, 8; Carrier Gas, 1.1 L/min; Nebulizer Pump […]
Roswell Park Memorial Institute 1640 medium (RPMI), fetal bovine serum (FBS), penicillin, and streptomycin were purchased from Invitrogen Thermo Fisher.
Ovarian tumour NCI/ADR-RES cells, obtained from the European Collection of Authenticated Cell Cultures (ECACC), were cultured at 37 °C in a 5% CO2 atmosphere in RPMI medium containing 10% FBS and supplemented with 50 U/mL penicillin and 50 U/mL streptomycin, in 75 cm2 cell culture flasks. All cell experiments were performed at 37 °C in a 5% CO 2 atmosphere with this modified RPMI, referred as “medium” or “culture medium”.
7.3. […]
The culture medium was then replaced with 3 mL of fresh medium containing 1 µM of the compound [Cu(II) (CuCl₂·2H₂O), cyclopeptide ( 1 or 2), or metallopeptide system [1/Cu(II) or 2/Cu(II); 1 eq. cyclopeptide + 1 eq. […] Lysates were digested at 95 °C overnight, diluted with 1% HNO₃ to a final volume of 5 mL, and analyzed by ICP-MS. The Cu(II) content in the culture medium (3 mL) was also measured using the same technique, yielding a value of 41.46 ng. […]

N=C(N)NCCC[C@@H]1NC(=O)c2ccc(nc2)-c2ccc(cn2)NC(=O)CCNC(=O)[C@H](CCCNC(=N)N)NC(=O)[C@H](CCCNC(=N)N)NC(=O)[C@H](CCCNC(=N)N)NC(=O)c2ccc(nc2)-c2ccc(cn2)NC(=O)CCNC(=O)[C@H](CCCNC(=N)N)NC(=O)[C@H](CCCNC(=N)N)NC1=O [compound 1, cyclo-(βAlaBpy-Arg3)2] (cyclo([X1]RRR[βAla][X1]RRR[βAla]))
E max (maximum % cell inhibition) [1]: 32 ± 2%
IC50 [1]: > 100 µM
E max (maximum % cell inhibition) [2]: 24 ± 2%
IC50 [2]: > 100 µM
E max (maximum % cell inhibition) (SF-268 (human glioma)): 45 ± 2%
IC50 (SF-268 (human glioma)): > 100 µM
intracellular Cu(II) accumulation (ICP-MS) (NCI/ADR-RES cells): notably lower than that of the metallopeptide systems
